From patent publication EP0356192A2, “Prevention & treatment of liver abscesses in animals” (SMITHKLINE BEECHAM CORPORATION, priority 1988, dated 1990)
In brackets after ≈: the same amount, converted by molar mass. Several values for one entry are separate records, joined by “and”; a condition that tells them apart may be missing. Equal entries are not always repeated. Where two headings read alike, the source gives them in different places.

What was measured:
[1] = test system: Fusobacterium necrophorum ATCC 25286; experiment: MIC by agar dilution method (Wilkins-Chalgren Agar); format: cell-based
Description: (§1) In this example, microbiological studies were initiated with Virginiamycin and other antibiotics so as to determine their potency in controlling liver abscesses. As Fusobacterium necrophorum has been associated with bovine liver abscesses in cattle, it was determined that microbiological studies involving this bacterium would be undertaken with representative examples of antibiotics including Virginiamycin.
(§2) The MIC's for Fusobacterium necrophorum was done by the agar dilution method. Two-fold serial dilutions of each compound was incorporated into Wilkins-Chalgren Agar plates. Each Fusobacterium necrophorum was propagated in Peptone-Yeast-Glucose broth and inoculated onto the plates with a multipoint inoculating device. The plates were incubated at 37°C in an atmosphere of 10% H₂, 5% CO₂ and 85% N₂, for 40 hours.

[2] = test system: Fusobacterium necrophorum ATCC 27852; experiment: as above; format: cell-based
Description: as §1, §2

[3] = test system: Fusobacterium necrophorum Colorado Strain; experiment: as above; format: cell-based
Description: as §1, §2

[4] = test system: Fusobacterium necrophorum; experiment: MIC of Virginiamycin and ionophores alone and combined at fixed ratios, two-fold serial dilution of a stock solution; format: cell-based; conditions: for MIC Alone: antibiotic alone; for MIC: Fusobacterium necrophorum, read-out: MIC Alone
Description: In this example, microbiological studies were initiated with combinations of antibiotics from the Virginiamycin family of antibiotics and ionophore family of antibiotics so as to determine their potency in controlling liver abscesses. As Fusobacterium necrophorum has been associated with bovine liver abscess in cattle, it was determined that microbiological studies involving this bacterium would be undertaken. Since the liver abscess etiology is poorly defined, it is difficult to precisely extrapolate these studies to animal disease. […]
Virginiamycin was combined with an antibiotic from the ionophore family in a ratio expected in medicated feeds, eg. Salinomycin at 20 g/Ton and Virginamycin at 15 g/Ton have a ratio of 1.3:1. For the microbilogical studies, a stock solution was made up to contain Salinomycin and Virginiamycin in the same ratio of 1.3:1. The stock solution was serially diluted two fold. The dilutions were incubated with F. necr. The end point was the lowest concentrations antibiotics which inhibited the growth of F. necr., or MIC for minimal inhibitory concentration, eg. the MIC of Salinomycin was 5 µg/ml while that of Virginiamycin was 1 µg/ml.

liver abscess = experiment: Incidence of liver abscess at slaughter in cattle fed a ration supplemented with Virginiamycin; format: in vivo; conditions: for No. of Animals With Liver Abscess: ad libitum, approximately 120 days, Total Animals 197 (control 26 of 199); for No. of Animals Without Liver Abscess: Total Animals 197
Description: A cattle ration was prepared using the following formula: […]
The ration was supplemented with varying proportions of Virginiamycin and fed, ad libitum, to approximately 200 cattle weighing between 650 lbs. and 850 lbs. The cattle were processed according to standard procedures for the facility, individually weighed and identified. The treatments were continued until the cattle reached an approximate weight of 1100 lbs. (approximately 120 days).
Virginiamycin was added to the ration in the following amounts: Table 2
At slaughter, livers were identified with the individual animal number and scored for liver abscess after examination in the manner required by USDA. Livers were palpated and suspicious area were excised and examined for the presence of liver abscesses.

[5] = test system: Fusobacterium necrophorum (the two ATCC strains); experiment: MIC of factors M and S of virginiamycin, one experiment, two ATCC strains taken together; format: cell-based; conditions: geometric mean for the two ATCC strains
Description: as §2
In the one experiment in which factors M and S of virginiamycin were tested, the MICs were 0.35 (geometric mean for the two ATCC strains) and greater than 32 µg/ml, respectively. Virginiamycin contains 75% of Factor M and 25% of Factor S.

[6] = Fusobacterium necrophorum, ATCC25286, 40 h
[7] = Fusobacterium necrophorum, ATCC27852, 40 h
[8] = strain ATCC 27852, 37°C, anaerobic atmosphere, 40 hours, * = geometric mean of more than one determination
[9] = strain ATCC 25286, 37°C, anaerobic atmosphere, 40 hours, * = geometric mean of more than one determination
[10] = Fasalocid : Virginiamycin, ratio 2:1
[11] = Fasalocid : Virginiamycin, ratio 3:1
[12] = Ferrensinmycin : Virginiamycin, ratio 1.3:1
[13] = Fusobacterium necrophorum, 40 h

`CN(C)[C@@H]1C(O)=C(C(N)=O)C(=O)[C@@]2(O)C(O)=C3C(=O)c4c(O)ccc(Cl)c4[C@@](C)(O)[C@H]3C[C@@H]12` [Chlortetracycline] was tested, and the MIC [1, 6] was 0.02 µg/mL (≈ 0.0418 µM) and the MIC [2, 7] was 0.12 µg/mL (≈ 0.251 µM).
Compound `CN(C)[C@@H]1C(=O)C(C(N)=O)=C(O)[C@@]2(O)C(=O)C3=C(O)c4c(O)cccc4[C@@](C)(O)[C@H]3[C@H](O)[C@@H]12` [Oxytetracyline, Oxytetracycline] has an MIC [1, 6] of 0.03 µg/mL (≈ 0.0652 µM) and an MIC [2, 7] of 0.25 µg/mL (≈ 0.543 µM).
In the case of Zinc bacitracin, the MIC [2, 8] was 9.2 µg/mL.
In the case of Virginiamycin, the MIC [1, 9] was 0.9* µg/ml, the MIC ([3]; Colorado Strain, 37°C, anaerobic atmosphere, 40 hours, * = geometric mean of more than one determination) was 1.0* µg/ml and the “effectiveness compared with Tylosin” value ([2]; strain ATCC 27852, from MICs) was “twice as effective as Tylosin”. The MIC [2, 8] was 1.0* µg/ml, the “MIC Combination” value [4, 10] was 1 µg/mL and the “MIC Combination” value [4, 11] was 0.9 µg/mL. For the same compound, the “MIC Combination” value [4, 12] was 0.5 µg/mL, the “MIC Combination” value ([4]; Monensin : Virginiamycin, ratio 0.7:1) was 0.5 µg/mL and the “MIC Combination” value ([4]; Monensin : Virginiamycin, ratio 2:1) was 0.01 µg/mL. The “MIC Combination” value ([4]; Monensin : Virginiamycin, ratio 3:1) was 0.7 µg/mL, the “MIC Combination” value ([4]; Salinomycin : Virginiamycin, ratio 1:1) was 0.7 µg/mL and the “MIC Combination” value ([4]; Salinomycin : Virginiamycin, ratio 1.3:1) was 0.02 µg/mL. For the same compound, the “decrease in the MIC on combination” value ([4]; Salinomycin : Virginiamycin, ratio 1.3:1, vs alone) was 50 fold, the “MIC Alone” value [4] was 0.7 µg/mL and the “No. of Animals With Liver Abscess” value (liver abscess; Vm 9.1 grams/ton in ration) was 16. For the same compound, the “No. of Animals Without Liver Abscess” value (liver abscess; Vm 9.1 grams/ton in ration) was 181, the “No. of Animals With Liver Abscess” value (liver abscess; Vm 22.7 grams/ton in ration) was 12 and the “No. of Animals Without Liver Abscess” value (liver abscess; Vm 22.7 grams/ton in ration) was 185. The “No. of Animals With Liver Abscess” value (liver abscess; Vm 45.5 grams/ton in ration) was 6, the “No. of Animals Without Liver Abscess” value (liver abscess; Vm 45.5 grams/ton in ration) was 191 and the “effect on the incidence of liver abscess” value (liver abscess; all dose groups vs control, Chi-Square Goodness of Fit) was “obvious beneficial effect”.
With Virginiamycin factor M the MIC [1, 9] was 0.5 µg/mL, the MIC [2, 8] was 0.25 µg/mL and the MIC [5] was 0.35 µg/mL.
Compound Flavomycin has an MIC [1, 9] of 0.25 µg/mL and an MIC [2, 8] of 0.12 µg/mL.
Work on `CC[C@H]1OC(=O)C[C@@H](O)[C@H](C)[C@@H](O[C@@H]2O[C@H](C)[C@@H](O[C@H]3C[C@@](C)(O)[C@@H](O)[C@H](C)O3)[C@H](N(C)C)[C@H]2O)[C@@H](CC=O)C[C@@H](C)C(=O)/C=C/C(C)=C/[C@@H]1CO[C@@H]1O[C@H](C)[C@@H](O)[C@@H](OC)[C@H]1OC` [Tylosin] yielded an MIC [1, 6] of 0.8 µg/mL (≈ 0.873 µM), an MIC [3, 13] of 1 µg/mL (≈ 1.09 µM) and an MIC [2, 7] of 1.4 µg/mL (≈ 1.53 µM).
Compound `CC[C@@H](C(=O)[C@@H](C)[C@@H](O)[C@H](C)CCc1ccc(C)c(O)c1C(=O)O)[C@H]1O[C@](CC)([C@H]2CC[C@](O)(CC)[C@H](C)O2)C[C@@H]1C` [Lasalocid] has an MIC [1, 6] of 9.1 µg/mL (≈ 15.4 µM), an MIC [3, 13] of 8.5 µg/mL (≈ 14.4 µM) and an MIC [2, 7] of 12 µg/mL (≈ 20.3 µM).
`CC[C@H]1OC(=O)[C@H](C)[C@@H](O[C@H]2C[C@@](C)(OC)[C@@H](O)[C@H](C)O2)[C@H](C)[C@@H](O[C@@H]2O[C@H](C)C[C@H](N(C)C)[C@H]2O)[C@](C)(O)C[C@@H](C)C(=O)[C@H](C)[C@@H](O)[C@]1(C)O` [Erythromycin] showed an MIC [1, 6] of 8 µg/mL (≈ 10.9 µM).
In the case of `CC[C@@H](C(=O)[C@@H](C)[C@@H](O)[C@H](C)CCc1ccc(C)c(O)c1C(=O)O)[C@H]1O[C@](CC)([C@H]2CC[C@](O)(CC)[C@H](C)O2)C[C@@H]1C` [Fasalocid], the “MIC Combination” value [4, 10] was 1 µg/mL, the “MIC Combination” value [4, 11] was 3 µg/mL and the “MIC Alone” value [4] was 7 µg/mL and 10 µg/mL.
Avoparcin was tested, and the MIC [1, 9] was 32.0 µg/mL and the MIC [2, 8] was 64.0 µg/mL.
Work on `CC[C@@]1([C@@H]2O[C@@H]([C@H]3O[C@@](O)(CO)[C@H](C)C[C@@H]3C)C[C@@H]2C)CC[C@H]([C@]2(C)CC[C@]3(C[C@H](O)[C@@H](C)[C@@H]([C@@H](C)[C@@H](OC)[C@H](C)C(=O)O)O3)O2)O1` [Monensin] yielded an MIC [1, 6] of 6.4 µg/mL (≈ 9.54 µM), an MIC [3, 13] of 4.2 µg/mL (≈ 6.26 µM) and an MIC [2, 7] of 3 µg/mL (≈ 4.47 µM). It also gave an MIC [4] of 4 µg/mL.
For Ferrensinmycin, the “MIC Combination” value [4, 12] was 0.6 µg/mL and the “MIC Alone” value [4] was 0.5 µg/mL.
Compound `CC[C@@H](C(=O)[C@@H](C)[C@@H](O)[C@H](C)[C@@H]1O[C@@H]([C@@H](CC)C(=O)O)CC[C@@H]1C)[C@H]1O[C@]2(C=C[C@@H](O)[C@]3(CC[C@@](C)([C@H]4CC[C@](O)(CC)[C@H](C)O4)O3)O2)[C@H](C)C[C@@H]1C` [Salinomycin] has an MIC [1, 6] of 3.6 µg/mL (≈ 4.79 µM), an MIC [3, 13] of 5.7 µg/mL (≈ 7.59 µM) and an MIC [2, 7] of 4 µg/mL (≈ 5.33 µM). The “decrease in the MIC on combination” value [4] was 250 fold and the MIC [4] was 5 µg/mL.
